Measured values taken from patent US11541050B2, “Pyrimidine derivatives for the treatment of viral infections” (JANSSEN SCIENCES IRELAND UC, priority 2011, dated 2023).

biological target: T1, human TLR7 (wild type sequence) (Homo sapiens, UniProt Q9NYK1); assay: TLR7 cellular NFκB-luc reporter assay, wild type TLR7; assay type: cell-based; parameters: unit not given here; conditions: lowest effective concentration, wild type TLR7 (compounds 1-73)
T1 construct: expressed in transfected cells; host or cells: HEK293
T1 sequence (Q9NYK1 27-1049): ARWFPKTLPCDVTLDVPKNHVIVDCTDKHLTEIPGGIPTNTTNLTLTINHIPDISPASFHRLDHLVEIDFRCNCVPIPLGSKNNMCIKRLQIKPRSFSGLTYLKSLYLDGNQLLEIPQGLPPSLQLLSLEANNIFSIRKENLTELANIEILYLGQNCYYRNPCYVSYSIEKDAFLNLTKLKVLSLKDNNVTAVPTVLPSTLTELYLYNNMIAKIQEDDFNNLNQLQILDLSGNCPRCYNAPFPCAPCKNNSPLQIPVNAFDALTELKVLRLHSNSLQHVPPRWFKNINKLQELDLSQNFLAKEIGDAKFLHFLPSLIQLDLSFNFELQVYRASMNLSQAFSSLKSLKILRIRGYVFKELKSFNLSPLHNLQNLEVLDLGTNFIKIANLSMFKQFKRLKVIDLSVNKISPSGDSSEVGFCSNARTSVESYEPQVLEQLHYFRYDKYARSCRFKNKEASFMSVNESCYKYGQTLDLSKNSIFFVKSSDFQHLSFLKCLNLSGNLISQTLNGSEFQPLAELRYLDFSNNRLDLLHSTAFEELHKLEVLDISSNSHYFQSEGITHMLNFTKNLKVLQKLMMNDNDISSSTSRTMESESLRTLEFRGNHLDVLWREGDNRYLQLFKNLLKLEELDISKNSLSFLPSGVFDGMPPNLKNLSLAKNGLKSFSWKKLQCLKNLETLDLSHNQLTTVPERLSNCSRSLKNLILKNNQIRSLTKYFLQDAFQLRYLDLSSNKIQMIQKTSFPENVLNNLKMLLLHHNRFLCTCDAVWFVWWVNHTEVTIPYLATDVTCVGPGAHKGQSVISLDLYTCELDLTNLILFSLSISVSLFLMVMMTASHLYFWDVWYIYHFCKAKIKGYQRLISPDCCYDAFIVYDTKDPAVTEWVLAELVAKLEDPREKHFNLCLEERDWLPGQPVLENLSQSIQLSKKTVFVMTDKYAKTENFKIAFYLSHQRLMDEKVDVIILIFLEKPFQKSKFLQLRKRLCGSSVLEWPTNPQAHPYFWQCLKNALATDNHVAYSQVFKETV
How it was run: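 HEK293 cells transiently co-transfected (48 h, 37 °C) with CMV-TLR7 or TLR8 plasmid (wild type or second-LRR deletion mutant) plus NFκB-luc reporter. Cells exposed to compound for 6 h at 37 °C, 5% CO2; luciferase read-out. LEC from quadruplicate dose-response curves: concentration giving effect at least two fold above assay standard deviation.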

SMILES	TLR7-wt_LEC
CCCCNc1nc(N)ncc1OC [Compound 4]	6.71
CCCCNc1nc(N)ncc1OCC(C)C [Compound 31]	>24.59
CCCCCOc1cnc(N)nc1NCCCC [Compound 32]	10.60
CCCCCNc1nc(N)ncc1Oc1ccccc1OC [Compound 38]	21.97
CCCCCNc1nc(N)ncc1OC [Compound 56]	12.02
CCCCNc1nc(N)ncc1OCc1ccc(-c2ccccc2)cc1 [Compound 58]	6.48
CCCCNc1nc(N)ncc1OCC [Compound 60]	5.58
CCCCCNc1nc(N)ncc1OCC [Compound 63]	2.78
CCCCNc1nc(N)ncc1Oc1ccccc1OC [Compound 64]	8.47
CCCCCCNc1nc(N)ncc1OCC [Compound 70]	15.84

test system: human TLR7 mutant sequence comprising a deletion in the second leucine-rich repeat; assay: TLR7 cellular NFκB-luc reporter assay, mutant TLR7 with deletion in the second leucine-rich repeat; assay type: cell-based; parameters: unit not given here; conditions: lowest effective concentration, TLR7 mutant with deletion in second leucine-rich repeat
How it was run: (§1)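 HEK293 cells transiently co-transfected with CMV-driven mutant TLR7 or TLR8 plasmid plus NFκB-luc reporter, cultured 48 h at 37 °C, then exposed to compound for 6 h at 37 °C, 5% CO2. Luciferase luminescence measured; dose-response curves from quadruplicates.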

SMILES	TLR7-dIRR2_LEC
CCCCNc1nc(N)ncc1OC [Compound 4]	1.17
CCCCNc1nc(N)ncc1OCC(C)C [Compound 31]	5.27
CCCCCOc1cnc(N)nc1NCCCC [Compound 32]	1.35
CCCCCNc1nc(N)ncc1Oc1ccccc1OC [Compound 38]	2.46
CCCCCNc1nc(N)ncc1OC [Compound 56]	0.84
CCCCNc1nc(N)ncc1OCc1ccc(-c2ccccc2)cc1 [Compound 58]	0.99
CCCCNc1nc(N)ncc1OCC [Compound 60]	1.38
CCCCCNc1nc(N)ncc1OCC [Compound 63]	1.79
CCCCNc1nc(N)ncc1Oc1ccccc1OC [Compound 64]	2.03
CCCCCCNc1nc(N)ncc1OCC [Compound 70]	4.96

test system: human TLR8 mutant sequence comprising a deletion in the second leucine-rich repeat; assay: TLR8 cellular NFκB-luc reporter assay, mutant TLR8 with deletion in the second leucine-rich repeat; assay type: cell-based; parameters: unit not given here; conditions: lowest effective concentration, TLR8 mutant with deletion in second leucine-rich repeat
How it was run: as §1

SMILES	TLR8-dIRR2_LEC
CCCCNc1nc(N)ncc1OC [Compound 4]	1.10
CCCCNc1nc(N)ncc1OCC(C)C [Compound 31]	6.46
CCCCCOc1cnc(N)nc1NCCCC [Compound 32]	4.43
CCCCCNc1nc(N)ncc1Oc1ccccc1OC [Compound 38]	22.88
CCCCCNc1nc(N)ncc1OC [Compound 56]	1.47
CCCCNc1nc(N)ncc1OCc1ccc(-c2ccccc2)cc1 [Compound 58]	2.17
CCCCNc1nc(N)ncc1OCC [Compound 60]	0.65
CCCCCNc1nc(N)ncc1OCC [Compound 63]	1.94
CCCCNc1nc(N)ncc1Oc1ccccc1OC [Compound 64]	7.65
CCCCCCNc1nc(N)ncc1OCC [Compound 70]	>24.59
